The text below walks through data of patent publication US8076366B2, “Forms of bendamustine free base” (Cephalon, Inc., priority 2009, dated 2011).

Where only a bound is given, the exact number is not on record here.

A short description of the data set: Variable temperature X-ray powder diffraction (VT-XRPD) of Form 3: solid-state thermal stability. The data set is classed as physicochemical. The procedure:
Variable temperature studies were performed with an Anton Paar TTK450 temperature chamber under computer control through an Anton Paar TCU100 temperature control unit. Typically, the measurements were done with a nitrogen flow through the camera. Two measurement schemes were used, restricted and continuous. In the restricted mode, measurements were made only after the TK450 chamber reached the requested temperature. In the continuous mode, the sample was heated at 10° C./minute and fast scans were measured as the temperature changed. After the pre-selected temperature was reached, the sample was cooled at 35° C./minute. To monitor for changes during the cooling, fast scans were again measured. At 25° C., a slow scan was measured. The temperatures chosen were based on DSC results. For the diffractometer set-up a 10 mm beam mask, 0.04 radian Soller slits and fixed (¼°) divergence and anti-scatter (⅛°) slits were inserted on the incident beam side. A fixed 0.10 mm receiving slit, 0.04 radian Soller slits and a 0.02 mm Nickel filter were inserted on the diffracted beam side. […] With the nitrogen gas supply turned off, the camera returned to ambient conditions. The humidity in the ambient state varies with the humidity in the laboratory, typically 30 to 40%, and with the temperature in the camera. As the temperature is raised, the relative humidity will drop. […]

For `Cn1c(CCCC(=O)O)nc2cc(N(CCCl)CCCl)ccc21` [Form 3, 4-{5-[Bis(2-chloroethyl)amino]-1-methyl-2-benzimidazolyl}butyric acid], the “temperature after which the sample converts to amorphous material” value is over 133 °C. Also, the “solid-solid transformations on heating” value (temperature range of 25° C. to 50° C.) is “No significant, solid-solid transformations”.
